Experimental data reported in US20260209206A1, “STAT6 DEGRADERS AND USES THEREOF” (Kymera Therapeutics, Inc., priority 2023, published 2026).

Columns and labels:
STAT6 [1] = biological target: T1, STAT6 (Homo sapiens, UniProt P42226); assay: STAT6 HiBiT degradation in A549 (STAT6-HiBiT) cells; assay type: cell-based; settings: 24 h
T1 construct: endogenous in cells; host or cells: A549 (STAT6-HiBiT), endogenous locus tagged
T1 sequence (P42226 1-847): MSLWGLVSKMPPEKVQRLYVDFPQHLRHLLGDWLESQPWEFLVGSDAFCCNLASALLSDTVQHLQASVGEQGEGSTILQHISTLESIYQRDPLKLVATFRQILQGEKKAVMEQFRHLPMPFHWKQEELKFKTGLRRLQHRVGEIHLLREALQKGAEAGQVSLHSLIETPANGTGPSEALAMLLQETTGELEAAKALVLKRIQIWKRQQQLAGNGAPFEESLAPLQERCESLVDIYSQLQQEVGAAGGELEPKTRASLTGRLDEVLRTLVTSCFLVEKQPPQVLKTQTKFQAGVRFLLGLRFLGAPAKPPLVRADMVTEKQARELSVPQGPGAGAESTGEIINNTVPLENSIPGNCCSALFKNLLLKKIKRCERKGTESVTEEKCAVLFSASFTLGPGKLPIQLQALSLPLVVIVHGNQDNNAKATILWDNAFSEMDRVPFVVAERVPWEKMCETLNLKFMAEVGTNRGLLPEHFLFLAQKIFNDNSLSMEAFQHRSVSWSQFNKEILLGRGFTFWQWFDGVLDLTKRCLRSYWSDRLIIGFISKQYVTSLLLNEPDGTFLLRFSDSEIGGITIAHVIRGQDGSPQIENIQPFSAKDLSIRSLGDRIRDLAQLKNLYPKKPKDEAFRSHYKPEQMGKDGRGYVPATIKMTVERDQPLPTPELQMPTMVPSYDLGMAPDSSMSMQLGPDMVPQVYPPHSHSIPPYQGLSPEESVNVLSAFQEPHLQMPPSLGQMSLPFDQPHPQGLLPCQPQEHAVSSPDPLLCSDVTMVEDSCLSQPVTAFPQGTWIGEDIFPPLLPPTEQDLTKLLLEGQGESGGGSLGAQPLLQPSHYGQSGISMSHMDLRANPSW
Protocol: Degradation of STAT6 in endogenously tagged STAT6-HiBiT A549 cells was quantitatively measured using the Nano-Glo HiBiT Lytic Detection System (Promega, 3040). A549 (STAT6-HiBiT) cells were seeded in 384-well plates with a density of 1.25k cells per well in 20 μl fresh media. Compounds were then added to the assay plates using the Apricot S3 with a final top concentration of up to 10 uM in a 4-fold dilution series with total of 10 doses. The assay plates were then incubated for 24 hours at 37° C. under 5% CO2. At the assay endpoint, 20 μL of Nano-Glo HiBiT Lytic Reagent was added to each well and agitated on a plate shaker at 300 rpm for 10 minutes at room temperature. Luminescence was read on PHERAStar FSX Instrument (Is integration time). The data was analyzed by GraphPad Prism and the dose dependent STAT6 degradation was fit using the four-parameter inhibitor vs. response nonlinear regression.
The letter codes for DC50 (nM) include: A (<1 nM): B (1-10 nM); C (>10-100 nM); D (>100-1000 nM); E (>1000 nM); and F (not tested). The letter codes for Dmax (%) include: A (>90%); B (>70-90%); C (>50-70%); D (<50%): and E (not tested).

[2] = biological target: T2, biotinylated truncated STAT6 (123-632)-avi (Homo sapiens, UniProt P42226); assay: STAT6 HTRF binding assay; settings: 0.15 nM STAT6 (123-632)-avi, 20 nM fluorescein-labeled probe, 30 minutes at room temperature
T2 construct: 0.15 nM biotinylated truncated STAT6 (123-632)-avi purified from E. coli; made in house; host or cells: E. coli
T2 sequence (P42226 123-632 limits assumed): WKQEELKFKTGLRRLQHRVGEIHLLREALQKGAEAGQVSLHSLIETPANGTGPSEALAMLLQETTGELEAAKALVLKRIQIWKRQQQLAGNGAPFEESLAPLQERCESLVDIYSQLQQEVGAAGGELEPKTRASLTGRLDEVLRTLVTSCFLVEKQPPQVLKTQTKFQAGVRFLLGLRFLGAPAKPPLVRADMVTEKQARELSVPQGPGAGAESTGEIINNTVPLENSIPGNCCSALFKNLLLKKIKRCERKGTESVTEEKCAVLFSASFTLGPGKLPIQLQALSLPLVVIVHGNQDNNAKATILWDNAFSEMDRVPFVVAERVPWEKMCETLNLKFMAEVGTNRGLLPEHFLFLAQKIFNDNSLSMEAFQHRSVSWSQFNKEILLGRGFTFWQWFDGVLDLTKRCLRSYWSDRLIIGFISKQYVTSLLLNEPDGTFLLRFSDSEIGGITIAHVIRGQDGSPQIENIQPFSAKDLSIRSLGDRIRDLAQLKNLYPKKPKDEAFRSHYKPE
Protocol: HTRF binding assays were perforned using 0.15 nM biotinylated truncated STAT6 (123-632)-avi purified from E. coli, 1× Streptavidin-terbium (CisBio) prepared by mixing SA-Tb in PPI detection buffer (CisBio), 20 nM proprietary fluorescein-labeled probe, and test compounds in assay buffer consisting of 50 mM HEPES-Na pH 7.5, 100 mM NaCl, 1 mM EDTA, 2 mM DTT, 0.1% Tween-20 with a final volume of 20 uL. Compound stocks were dissolved at 10 mM in 100% DMSO and 11 point titration with 3 fold serial dilution was performed in white, opaque 384 well microplates. Reaction plates were incubated at room temperature for 30 minutes. Plates were centrifuged at low rpm for 5 mins, and the ratio of fluorescence intensities were measured at emission wavelengths for fluorescein acceptor (520 nm) and terbium donor (495 nm) on Envision Plate reader. % Inhibition was calculated from the 520/495 ratio generated by using proprietary positive control compound for 100% inhibition and DMSO only reactions for 0% inhibition. Data was processed and dose response curves were generated using GraphPad Prism to determine the concentration required for inhibiting 50% of the HTRF signal (IC50).
The letter codes for IC50 (μM) include: A (<0.1 μM); B (0.1-1 μM); C (>1-10 μM); D (>10-100 μM); E (>100 μM); and F (not tested).

STAT6 [3] = biological target: T1, STAT6; assay: STAT6 MSD degradation in A549 cells; assay type: cell-based; settings: 24 h
Protocol: Degradation of STAT6 in cells was quantitatively measured using Meso Scale Discovery (MSD) technology. A549 cells were seeded in 96-well plates with a density of 1.5×10e4 to 5×10e5 cells per well in 100 μl fresh media. Compounds were then added to the assay plates with a final top concentration of up to 10 uM in a 1:3 dilution series with total of 9 doses. The assay plates were then incubated for 4 to 24 hours at 37° C. under 5% CO2. The assay plates were then centrifuged for 5 minutes and the cell pellets were treated with 100 μl/well RIPA lysis buffer (Boston Bioproducts, BP-115D) with protease and phosphatase inhibitors (Roche, 05892791001 and 04906837001). To prepare the MSD assay plates (MSD, L15XA), the plates were coated with the capture antibody (Abnova, H00006778) in PBS, at 40 μl/well. The plates were then incubated overnight at 4° C., washed 1 time with […] TBST buffer (Cell Signaling Technology, #9997S) and blocked with 150 μl/well blocking buffer (MSD, R93BA-4). Cell lysates were then added to MSD assay plates and the plates were incubated at room temperature for 1 hour. The plates were then washed 3 times with 150 μl/well TBST buffer and 25 μl/well primary detection antibody (Cell Signaling Technology, #5397S). The assay plates were then incubated at room temperature for 1 hour, washed 3 times with 150 μl/well TBST buffer, and 25 μl/well secondary detection antibody, SULFO-TAG anti-rabbit antibody (MSD, R32AB-1) were added. The assay plates were then incubated at room temperature for 1 hour, washed 3 times with 150 μl/well TBST buffer, and 150 μl/well MSD reading buffer (MSD, R92TC-2) were added. The plates were then analyzed by an MSD reader. The data was analyzed by GraphPad Prism and the dose dependent STAT6 degradation was fit using the four-parameter inhibitor vs. response nonlinear regression.
The letter codes for DC50 (nM) include: A (<1 nM); B (1-10 nM); C (>10-100 nM); D (>100-1000 nM); E (>1000 nM); and F (not tested). The letter codes for Dmax (%) include: A (>90%); B (>70-90%); C (>50-70%); D (<50%); and E (not tested).

| SMILES | DC50 (STAT6 [1]) [nM] | Dmax (STAT6 [1]) [%] | IC50 [2] [nM] | DC50 (STAT6 [3]) [nM] | Dmax (STAT6 [3]) [%] |
| --- | --- | --- | --- | --- | --- |
| COc1cc(N2CCN(CCc3cccc4c3n(C)c(=O)n4C3CCC(=O)NC3=O)CC2)ccc1-c1cc(Nc2ccccn2)c(F)c(C2=CCCN(C(=O)CCn3ccnn3)C2)c1 (stereo not drawn) [I-1272] | < 1 | > 90 | 100 to 1000 | – | – |
| COc1cc(N2CCN(CCc3cccc4c3n(C)c(=O)n4C3CCC(=O)NC3=O)CC2)ccc1-c1cc(-c2cccc(C(=O)N(C)C)c2)c(F)c2[nH]c(C(=O)N(C)C)cc12 (stereo not drawn) [I-1302] | 1 to 10 | 70 to 90 | 1000 to 10000 | – | – |
| COc1cc(N2CCN(CCc3cccc4c3n(C)c(=O)n4C3CCC(=O)NC3=O)CC2)ccc1-c1cc(C2=CCCN(C(=O)CCn3ccnn3)C2)cc2cc(C(=O)N(C)C)cnc12 (stereo not drawn) [I-1338] | > 1000 | < 50 | 10000 to 100000 | – | – |
| COc1cc(N2CCN(CCc3cccc4c3n(C)c(=O)n4C3CCC(=O)NC3=O)CC2)ccc1-c1cc(C(=O)N(C)C)ccc1C1=CCCN(C(=O)CCn2ccnn2)C1 (stereo not drawn) [I-1323] | 100 to 1000 | 70 to 90 | 100 to 1000 | – | – |
| CN(C)C(=O)c1cc2ccc(C3=CCCN(C(=O)C4Cc5c(cccc5OCCOCCOCCOCCOCCc5cccc6c5n(C)c(=O)n6C5CCC(=O)NC5=O)CN4C=O)C3)cc2[nH]1 (stereo not drawn) [I-61] | – | – | – | > 1000 | < 50 |
| CN(C)C(=O)c1cc2ccc(C3=CCCN(C(=O)C4Cc5c(cccc5OCCOCCOCCOCCc5cccc6c5n(C)c(=O)n6C5CCC(=O)NC5=O)CN4C=O)C3)cc2[nH]1 (stereo not drawn) [I-98] | – | – | 10000 to 100000 | > 1000 | < 50 |
| COc1cc(N2CCN(CCc3cccc4c3n(C)c(=O)n4C3CCC(=O)NC3=O)CC2)ccc1-c1cc(C2=CCCN(C(=O)CCn3ccnn3)C2)ccc1-n1ccccc1=O (stereo not drawn) [I-1309] | > 1000 | < 50 | – | – | – |
| CN(C)C(=O)c1cc2ccc(C3=CCCN(C(=O)C4Cc5c(cccc5OCCOCCOCCOCCOCCc5ccc6c(c5)n(C)c(=O)n6C5CCC(=O)NC5=O)CN4C=O)C3)cc2[nH]1 (stereo not drawn) [I-105] | – | – | – | > 1000 | < 50 |
| COc1cc(N2CCN(CCc3cccc4c3n(C)c(=O)n4C3CCC(=O)NC3=O)CC2)ccc1-c1cc(C2=CCCN(C(=O)CCn3ccnn3)C2)cc2c1CN(C(=O)N(C)C)C2 (stereo not drawn) [I-1334] | 10 to 100 | 70 to 90 | 1000 to 10000 | – | – |
| COc1cc(N2CCN(CCc3cccc4c3n(C)c(=O)n4C3CCC(=O)NC3=O)CC2)ccc1-c1cc(NC(=O)CCn2ccnn2)ccc1-c1ncc(C(=O)N(C)C)[nH]1 (stereo not drawn) [I-1324] | > 1000 | < 50 | 10000 to 100000 | – | – |
| COc1cc(N2CCN(CCc3cccc4c3n(C)c(=O)n4C3CCC(=O)NC3=O)CC2)ccc1-c1cc(C2=CCCN(C(=O)CCn3ccnn3)C2)c(F)c2cnccc12 (stereo not drawn) [I-1270] | > 1000 | < 50 | 1000 to 10000 | – | – |
| COc1cc(N2CCN(CCc3cccc4c3n(C)c(=O)n4C3CCC(=O)NC3=O)CC2)ccc1-c1cc(C2=CCCN(C(=O)CCn3ccnn3)C2)c(F)c2ccncc12 (stereo not drawn) [I-1271] | > 1000 | < 50 | 1000 to 10000 | – | – |
| COc1cc(N2CCN(CCc3cccc4c3n(C)c(=O)n4C3CCC(=O)NC3=O)CC2)ccc1-c1cc(C2=CCCN(C(=O)CCn3ccnn3)C2)cnc1CNC(=O)N(C)C (stereo not drawn) [I-1336] | > 1000 | < 50 | 1000 to 10000 | – | – |
| COc1cc(N2CCN(CCc3cccc4c3n(C)c(=O)n4C3CCC(=O)NC3=O)CC2)ccc1-c1cc(C2=CCCN(C(=O)CCn3ccnn3)C2)cc2ccc(C(=O)N(C)C)cc12 (stereo not drawn) [I-1293] | < 1 | > 90 | < 100 | – | – |
| COc1cc(N2CCN(CCc3cccc4c3n(C)c(=O)n4C3CCC(=O)NC3=O)CC2)ccc1-c1cc(C2=CCCN(C(=O)CCn3ccnn3)C2)cc2ccncc12 (stereo not drawn) [I-1401] | – | – | 10000 to 100000 | – | – |
| COc1cc(N2CCN(CCc3cccc4c3n(C)c(=O)n4C3CCC(=O)NC3=O)CC2)ccc1-c1cc(C2=CCCN(C(=O)CCn3ccnn3)C2)ccc1C(=O)N(C)C (stereo not drawn) [I-1282] | > 1000 | < 50 | 10000 to 100000 | – | – |
| COc1cc(N2CCN(CCc3cccc4c3n(C)c(=O)n4C3CCC(=O)NC3=O)CC2)ccc1-c1cc(C2CCCCN(C(=O)CCn3ccnn3)C2)c(F)c2[nH]c(C(=O)N(C)C)cc12 (stereo not drawn) [I-1292] | < 1 | > 90 | – | – | – |
